Measured values published in PMC9196629, “Synthesis, Characterization and Antitumor Mechanism Investigation of Heterometallic Ru(Ⅱ)-Re(Ⅰ) Complexes” (Frontiers in Chemistry, 2022).
Where “and” joins values, the source holds several entries; their conditions need not be identical. Equal entries are not always repeated.

Assays:
Format in all cases: cell-based, human
HeLa cells [1] = experiment: Colony formation assay; conditions: 24 h treatment then 7 days
Protocol: The consequence of increased local cell migration is distal invasion, and the clonal growth of distal invasive cells will produce a second tumor ([Wang et al., 2017]). We further investigated the ability of RuRe-1 and RuRe-2 to inhibit the formation of cell colonies by cell colony formation assay.
Colony forming assay. HeLa cells were cultured in 6-well plates at a density of 500 cells per well. After cells had adhered, the medium was replaced with medium containing the indicated concentrations of RuRe-1 and RuRe-2 for 24 h. Subsequently, the medium was replaced with fresh medium and the cells were cultured for 7 days to form colonies. The colonies formed were fixed with 4% paraformaldehyde, and stained with crystal violet (0.005%). Finally, colonies were calculated and the images were taken using digital camera.

HeLa cells [2] = experiment: Cell cycle analysis by flow cytometry with PI staining; conditions: 24 h; for S cell cycle population: control 14.4 ± 0.9; for G2/M cell cycle population: control 21.4 ± 0.7; for G0/G1 cell cycle population: control 64.2 ± 1.3
Source text: Cell cycle arrest studies provide a good understanding of cell apoptosis induced by metal drugs ([Sadoughi et al., 2021]). To further clarify the mechanism of apoptosis induced by RuRe-1 and RuRe-2, we analyzed the cell cycle of HeLa cells treated with RuRe-1 and RuRe-2 by flow cytometry with PI staining. […] A corresponding decrease in cell content in G1 and G2 phases was observed.
Cell cycle analysis. After HeLa cells were adhered to the 6-well plates, the medium was replaced with medium containing different concentrations of RuRe-1 and RuRe-2 for 24 h. Cells were collected and fixed for 24 h with pre-cooled 70% ethanol, then washed twice with PBS and finally stained with PI staining solution in a warm bath at 37 °C for 30 mins. The samples were detected by flow cytometry.

caspase-3 = experiment: Western blot of apoptosis-related proteins; conditions: HeLa, different concentrations, 24 h
Protocol: (§1) Cysteine aspartate proteases play an important role in apoptosis, especially caspase-3 protein, which is one of the most important execution factors in the apoptotic pathway ([Wang X. et al., 2021]). The poly(ADP-ribose) polymerase (PARP) is associated with DNA repair and guardianship of genetic integrity ([Pandey and Black, 2021]). After treating HeLa cells with different concentrations of RuRe-1 or RuRe-2 for 24 h, the expression of caspase-3 and the caspase substrate PARP apoptotic protein were detected by western blot. […] It was further shown that RuRe-1 and RuRe-2 are activators of caspase-3, which can trigger apoptosis in HeLa cells.
(§2) FIGURE 4 Expression of apoptosis-related protein (caspase-3 and PARP) in HeLa cells treated with RuRe-1 and RuRe-2 for 24 h.
(§3) Western blot analysis. HeLa cells were plated into the 6-well plates, after treating with different doses of RuRe-1 and RuRe-2 for 24 h, the cells were collected and lysed. The protein concentration was determined using the BCA assay kit. Equal amounts of protein were ran on SDS-PAGE and then transferred to the PVDF membrane.

PARP = experiment: Western blot of apoptosis-related proteins; conditions: HeLa, different concentrations, 24 h
Protocol: as §1, §2, §3

HeLa cells [3] = experiment: Intracellular ROS by H2DCFDA staining; conditions: 6 h, confocal microscopy
Protocol: ROS are natural by-product of normal oxygen metabolism and play an important role in cellular signaling transduction and homeostasis in vivo ([Casas et al., 2020]). It has been shown that the excessive production of ROS may cause oxidative stress and lead to cell death ([Jia et al., 2020]). Herein, cells were treated with RuRe-1 and RuRe-2 for 6 h and then stained with 2′,7′-dichlorodihydrouorescein diacetate (H2DCFDA). H2DCFDA is non-fluorescent and can be oxidized by intracellular ROS to highly fluorescent 2′,7′-dichlorofluorescein (DCF) ([Abdel Hadi et al., 2021]). The intensity of green fluorescence can respond to the accumulation of intracellular ROS.
FIGURE 7 RuRe-1 and RuRe-2 induced the elevation of intracellular ROS levels examined by confocal microscopy with H2DCFDA staining (λ ex = 488 nm, λ em = 530 ± 20 nm). The incubation time of the compounds was 6 h. Scale bar: 20 μm.
Measurement of intracellular ROS. After HeLa cells were adhered to the confocal dishes, the medium was replaced with medium containing the indicated concentrations of RuRe-1 and RuRe-2 for 6 h. Subsequently, the medium was aspirated and cells were washed three times with serum-free DMEM. Then, cells were co-incubated with fluorescent dye H2DCFDA (10 μM) at 37 °C for 10 mins and washed three times with PBS and visualized by a confocal microscope (λex = 488 nm, λem = 530 ± 20 nm).

HeLa cells [4] = experiment: Mitochondrial membrane potential (MMP) by Rh123 staining; conditions: 6 h, confocal microscopy
Source text: Apoptosis is associated with a decrease in MMP ([Wu et al., 2022]), so we investigated the effects of RuRe-1 and RuRe-2 on MMP. A decrease in fluorescence intensity of rhodamine 123 (Rh123) can indicate the loss of MMP ([Ma et al., 2019]). […] The decline of MMP further confirmed that RuRe-1 and RuRe-2 could influence mitochondrial function and promote apoptosis.
FIGURE 6 RuRe-1 and RuRe-2 induced the loss of MMP analyzed by confocal microscopy with Rh123 staining (λ ex = 488 nm, λ em = 530 ± 20 nm). The incubation time of the compounds was 6 h. Scale bar: 20 μm.
Measurement of MMP. After HeLa cells were adhered to the confocal dishes, the medium was replaced with medium containing the indicated concentrations of RuRe-1 and RuRe-2 for 6 h. Subsequently, the medium was aspirated and the cells were washed three times with PBS, then stained with Rh123 (1 μg/mL) for 30 mins. After washing with PBS twice, cells were observed under a confocal microscopy (λex = 488 nm, λem = 530 ± 20 nm).

In the case of `F[P-](F)(F)(F)(F)F.F[P-](F)(F)(F)(F)F.F[P-](F)(F)(F)(F)F.[C-]#[O+].[C-]#[O+].[C-]#[O+].[Re+].[Ru+2].c1ccc(-c2ccccn2)nc1.c1ccc(-c2ccccn2)nc1.c1ccc(-c2ccnc3c2ccc2c(-c4ccccc4)ccnc23)cc1.c1cnc2c(c1)c1nc(-c3ccncc3)[nH]c1c1cccnc12` [RuRe-1, [Ru(bpy)2LRe(CO)3(DIP)](PF6)3], the “cell populations (colonies) compared to the control group” value (HeLa cells [1]; 9.3 μM) was 4.8%, the “S cell cycle population” value (HeLa cells [2]; 6.2 μM) was 12.5 ± 0.2% and the “G2/M cell cycle population” value (HeLa cells [2]; 6.2 μM) was 18.7 ± 1.3%. For the same compound, the “G0/G1 cell cycle population” value (HeLa cells [2]; 6.2 μM) was 68.8 ± 0.5%, the “S cell cycle population” value (HeLa cells [2]; 9.3 μM) was 27.4 ± 0.9% and the “G2/M cell cycle population” value (HeLa cells [2]; 9.3 μM) was 16.1 ± 1.1%. The “G0/G1 cell cycle population” value (HeLa cells [2]; 9.3 μM) was 56.5 ± 1.1%, the “S cell cycle population” value (HeLa cells [2]; 12.4 μM) was 33.8% and 33.8 ± 1.2% and the “G2/M cell cycle population” value (HeLa cells [2]; 12.4 μM) was 14.5 ± 1.1%. For the same compound, the “G0/G1 cell cycle population” value (HeLa cells [2]; 12.4 μM) was 51.7 ± 0.9%, the “cleavage of caspase-3 (western blot)” value (caspase-3) was “induced the cleavage” and the “cleavage of PARP (western blot)” value (PARP) was “induced the cleavage”. For the same compound, the “intracellular ROS levels (H2DCFDA)” value (HeLa cells [3]) was “increase in intracellular ROS levels in a concentration-dependent manner” and the “MMP (green fluorescence intensity of Rh123)” value (HeLa cells [4]) was “decrease in the green fluorescence intensity of Rh123 in a dose-dependent manner”.
In the case of `F[P-](F)(F)(F)(F)F.F[P-](F)(F)(F)(F)F.F[P-](F)(F)(F)(F)F.[C-]#[O+].[C-]#[O+].[C-]#[O+].[Re+].[Ru+2].c1ccc(-c2ccnc3c2ccc2c(-c4ccccc4)ccnc23)cc1.c1cnc2c(c1)c1nc(-c3ccncc3)[nH]c1c1cccnc12.c1cnc2c(c1)ccc1cccnc12.c1cnc2c(c1)ccc1cccnc12` [RuRe-2, [Ru(phen)2LRe(CO)3(DIP)](PF6)3], the “cell populations (colonies) compared to the control group” value (HeLa cells [1]; 7.5 μM) was 3.9%, the “S cell cycle population” value (HeLa cells [2]; 5.0 μM) was 16.8 ± 1.6% and the “G2/M cell cycle population” value (HeLa cells [2]; 5.0 μM) was 17.9 ± 1.4%. The “G0/G1 cell cycle population” value (HeLa cells [2]; 5.0 μM) was 65.3 ± 0.9%, the “S cell cycle population” value (HeLa cells [2]; 7.5 μM) was 39.9 ± 1.5% and the “G2/M cell cycle population” value (HeLa cells [2]; 7.5 μM) was 7.4 ± 0.5%. For the same compound, the “G0/G1 cell cycle population” value (HeLa cells [2]; 7.5 μM) was 52.7 ± 1.3%, the “S cell cycle population” value (HeLa cells [2]; 10.0 μM) was 40.0% and 40.0 ± 0.6% and the “G2/M cell cycle population” value (HeLa cells [2]; 10.0 μM) was 7.6 ± 0.2%. For the same compound, the “G0/G1 cell cycle population” value (HeLa cells [2]; 10.0 μM) was 52.4 ± 1.0%, the “cleavage of caspase-3 (western blot)” value (caspase-3) was “induced the cleavage” and the “cleavage of PARP (western blot)” value (PARP) was “induced the cleavage”. The “intracellular ROS levels (H2DCFDA)” value (HeLa cells [3]) was “increase in intracellular ROS levels in a concentration-dependent manner” and the “MMP (green fluorescence intensity of Rh123)” value (HeLa cells [4]) was “decrease in the green fluorescence intensity of Rh123 in a dose-dependent manner”.
